Here are results for 9 compounds from PMC7531004, “Discovery of gramicidin A analogues with altered activities by multidimensional screening of a one-bead-one-compound library” (Nature Communications, 2020).

Where a SMILES comes first, the peptide text is derived from it. [ ]: non-standard residue; d: D form. The star is where a group is joined. NHCH2CH2OH = OCCN*; For = O=C*

In series [1] the test system is P388 mouse leukemia cells. The following applies: 92 h. The method in brief: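 P388 cells at 1 × 10^4 cells/mL (final) were exposed to library peptides (stocks diluted 250-fold in RPMI1640/10% FBS) for 92 h at 37 °C, 5% CO2. Viable cells were counted by WST-1/1-methoxy PMS (4 h), absorbance 415 nm, and expressed as cell viability (%).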
A short description of series [2]: H+/Na+ transport assay of bead-derived peptides (one-point).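 Also: relative to parent gramicidin A activity set to 1.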 The series is classed as biochemical. The arrangement: key: relative activity; mean of two control wells = 1.00. To be noted: bead-derived peptide solution, EYPC/EYPG LUVs. Put shortly: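 H+/Na+ transport is monitored through pyranine fluorescence in freshly extruded LUVs after a 30-min room-temperature vortex with each library peptide at a single concentration. Signals are normalized to detergent (Triton X-100) and untreated controls.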

Series [3] deals with Streptococcus pyogenes SSI-9. The series is described as follows: Antibacterial activity assay of bead-derived peptides (three concentrations). The series is classed as cell-based. The arrangement: key: +++: inhibition by the 640-fold diluted peptide solution; ++: inhibition by the 160-fold diluted solution; +: inhibition by the 40-fold diluted solution; -: no inhibition. To be noted: S. pyogenes, bead-derived peptide solution, three concentrations. The method in brief: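 Library peptide stock applied undiluted, 4-fold and 16-fold diluted in DMSO to S. pyogenes SSI-9 (2 × 10^5 CFU) in cation-adjusted Mueller Hinton broth with 5% laked horse blood. After 18 h at 37 °C, growth judged by visible cell precipitation.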

As to `CC(C)C[C@@H](NC(=O)[C@H](C)NC(=O)CNC(=O)[C@@H](NC=O)C(C)C)C(=O)N[C@@H](C)C(=O)N[C@H](CC(C)C)C(=O)N[C@H](C(=O)N[C@H](CC(C)C)C(=O)N[C@@H](Cc1c[nH]c2ccccc12)C(=O)N[C@H](CC(C)C)C(=O)N[C@@H](Cc1c[nH]c2ccccc12)C(=O)N[C@@H](C(=O)N[C@@H](Cc1c[nH]c2ccccc12)C(=O)N[C@@H](C(=O)N[C@@H](Cc1c[nH]c2ccccc12)C(=O)NCCO)C(C)C)C(C)C)C(C)C` [compound 2718] (For-VGA[dL]A[dL]V[dL]W[dL]W[dV]W[dV]W-NHCH2CH2OH), the cell viability/% in series [1] was found to be 0.3%. Besides, the “H+/Na+ transport activity normalized against the value of 1 (1.00)” value (shortened to “H+/Na+ transport activity normalized”) in series [2] is reported as 1.11. For the same compound, in series [3], the antibacterial activity result is “+”.
`CNC(=O)C[C@@H](NC(=O)[C@H](Cc1c[nH]c2ccccc12)NC(=O)[C@H](NC(=O)[C@H](Cc1c[nH]c2ccccc12)NC(=O)[C@@H](CC(C)C)NC(=O)[C@H](Cc1c[nH]c2ccccc12)NC(=O)[C@@H](CC(C)C)NC(=O)[C@@H](NC(=O)[C@@H](CC(C)C)NC(=O)[C@H](C)NC(=O)[C@@H](CC(C)C)NC(=O)[C@H](C)NC(=O)CNC(=O)[C@@H](NC=O)C(C)C)C(C)C)C(C)C)C(=O)N[C@@H](Cc1c[nH]c2ccccc12)C(=O)NCCO` [compound 2764] (For-VGA[dL]A[dL]V[dL]W[dL]W[dV]W[dD](NHMe)W-NHCH2CH2OH) came in with a cell viability/% in series [1] of 75.7%. In series [2], the “H+/Na+ transport activity normalized” value was determined as 1.12. Further, the antibacterial activity result in series [3] was “-”.
In series [1], `CC(C)C[C@@H](NC(=O)[C@H](C)NC(=O)[C@H](NC(=O)[C@H](C)NC(=O)CNC(=O)[C@@H](NC=O)C(C)C)C(C)C)C(=O)N[C@H](C(=O)N[C@H](CC(C)C)C(=O)N[C@@H](Cc1c[nH]c2ccccc12)C(=O)N[C@@H](C(=O)N[C@@H](Cc1c[nH]c2ccccc12)C(=O)N[C@@H](C(=O)N[C@@H](Cc1c[nH]c2ccccc12)C(=O)N[C@@H](C(=O)N[C@@H](Cc1c[nH]c2ccccc12)C(=O)NCCO)C(C)C)C(C)C)C(C)C)C(C)C` [compound 2832] (For-VGA[dV]A[dL]V[dL]W[dV]W[dV]W[dV]W-NHCH2CH2OH) returned a cell viability/% of 17.7%. The “H+/Na+ transport activity normalized” value in series [2] stood at 1.23. The antibacterial activity entry in series [3] is listed as “+”.
In series [1], `CNC(=O)C[C@@H](NC(=O)[C@@H](NC(=O)[C@H](NC(=O)[C@H](C)NC(=O)[C@@H](CC(C)C)NC(=O)[C@H](C)NC(=O)CNC(=O)[C@@H](NC=O)C(C)C)C(C)C)C(C)C)C(=O)N[C@@H](Cc1c[nH]c2ccccc12)C(=O)N[C@H](CC(C)C)C(=O)N[C@@H](Cc1c[nH]c2ccccc12)C(=O)N[C@@H](C(=O)N[C@@H](Cc1c[nH]c2ccccc12)C(=O)N[C@H](CC(C)C)C(=O)N[C@@H](Cc1c[nH]c2ccccc12)C(=O)NCCO)C(C)C` [compound 2881] (For-VGA[dL]A[dV]V[dD](NHMe)W[dL]W[dV]W[dL]W-NHCH2CH2OH) came in with a cell viability/% of 100.0%. Also, the “H+/Na+ transport activity normalized” value in series [2] was 1.16. For the same compound, the antibacterial activity entry in series [3] is on record as “-”.
Consider `CC(C)C[C@@H](NC(=O)[C@H](C)NC(=O)CNC(=O)[C@@H](NC=O)C(C)C)C(=O)N[C@@H](C)C(=O)N[C@H](CC(C)C)C(=O)N[C@H](C(=O)N[C@@H](C(=O)N[C@@H](Cc1c[nH]c2ccccc12)C(=O)N[C@@H](C(=O)N[C@@H](Cc1c[nH]c2ccccc12)C(=O)N[C@@H](C(=O)N[C@@H](Cc1c[nH]c2ccccc12)C(=O)N[C@@H](C(=O)N[C@@H](Cc1c[nH]c2ccccc12)C(=O)NCCO)C(C)C)[C@H](C)O)C(C)C)C(C)C)C(C)C` [compound 2887] (For-VGA[dL]A[dL]V[dV]W[dV]W[dT]W[dV]W-NHCH2CH2OH), for which, in series [1], the cell viability/% worked out at 99.0%. For the same compound, in series [2], the “H+/Na+ transport activity normalized” value came to 1.01. In series [3], the antibacterial activity result was “-”.
`CNC(=O)C[C@@H](NC(=O)[C@@H](NC(=O)[C@H](NC(=O)[C@H](C)NC(=O)[C@H](NC(=O)[C@H](C)NC(=O)CNC(=O)[C@@H](NC=O)C(C)C)C(C)C)C(C)C)C(C)C)C(=O)N[C@@H](Cc1c[nH]c2ccccc12)C(=O)N[C@@H](C(=O)N[C@@H](Cc1c[nH]c2ccccc12)C(=O)N[C@H](CC(C)C)C(=O)N[C@@H](Cc1c[nH]c2ccccc12)C(=O)N[C@H](CC(C)C)C(=O)N[C@@H](Cc1c[nH]c2ccccc12)C(=O)NCCO)C(C)C` [compound 2898] (For-VGA[dV]A[dV]V[dD](NHMe)W[dV]W[dL]W[dL]W-NHCH2CH2OH) returned a cell viability/% in series [1] of 100.0%. Further, the “H+/Na+ transport activity normalized” value in series [2] was 1.13. Moreover, the antibacterial activity result in series [3] is recorded as “-”.
In the same order, the values of `CNC(=O)C[C@@H](NC(=O)[C@@H](NC(=O)[C@H](NC(=O)[C@H](C)NC(=O)[C@@H](CC(C)C)NC(=O)[C@H](C)NC(=O)CNC(=O)[C@@H](NC=O)C(C)C)C(C)C)C(C)C)C(=O)N[C@@H](Cc1c[nH]c2ccccc12)C(=O)N[C@H](CC(C)C)C(=O)N[C@@H](Cc1c[nH]c2ccccc12)C(=O)N[C@@H](C(=O)N[C@@H](Cc1c[nH]c2ccccc12)C(=O)N[C@@H](C(=O)N[C@@H](Cc1c[nH]c2ccccc12)C(=O)NCCO)C(C)C)C(C)C` [compound 2932] (For-VGA[dL]A[dV]V[dD](NHMe)W[dL]W[dV]W[dV]W-NHCH2CH2OH) are 87.5%, 1.27 and “-”.
Taken in the same sequence, the figures for `CNC(=O)C[C@@H](NC(=O)[C@@H](NC(=O)[C@@H](CC(C)C)NC(=O)[C@H](C)NC(=O)[C@@H](CC(C)C)NC(=O)[C@H](C)NC(=O)CNC(=O)[C@@H](NC=O)C(C)C)C(C)C)C(=O)N[C@@H](Cc1c[nH]c2ccccc12)C(=O)N[C@@H](C(=O)N[C@@H](Cc1c[nH]c2ccccc12)C(=O)N[C@@H](C(=O)N[C@@H](Cc1c[nH]c2ccccc12)C(=O)N[C@H](CC(C)C)C(=O)N[C@@H](Cc1c[nH]c2ccccc12)C(=O)NCCO)C(C)C)C(C)C` [compound 2951] (For-VGA[dL]A[dL]V[dD](NHMe)W[dV]W[dV]W[dL]W-NHCH2CH2OH) were 93.1%, 1.10 and “-”.
Compound `CNC(=O)C[C@@H](NC(=O)[C@@H](NC(=O)[C@@H](CC(C)C)NC(=O)[C@H](C)NC(=O)[C@@H](CC(C)C)NC(=O)[C@H](C)NC(=O)CNC(=O)[C@@H](NC=O)C(C)C)C(C)C)C(=O)N[C@@H](Cc1c[nH]c2ccccc12)C(=O)N[C@H](CC(C)C)C(=O)N[C@@H](Cc1c[nH]c2ccccc12)C(=O)N[C@@H](C(=O)N[C@@H](Cc1c[nH]c2ccccc12)C(=O)N[C@H](CC(C)C)C(=O)N[C@@H](Cc1c[nH]c2ccccc12)C(=O)NCCO)C(C)C` [compound 2953] (For-VGA[dL]A[dL]V[dD](NHMe)W[dL]W[dV]W[dL]W-NHCH2CH2OH) came in with a cell viability/% in series [1] of 100.0%. Also, in series [2], the “H+/Na+ transport activity normalized” value worked out at 1.20. In series [3], the antibacterial activity result is given as “-”.
